Reference: PMC7948422, “Repurposing p97 inhibitors for chemical modulation of the bacterial ClpB–DnaK bichaperone system” (The Journal of Biological Chemistry, 2020)

What was measured:
[1] = target: T1, ClpB–DnaK bichaperone system (DnaK–DnaJ–GrpE + ClpB) (Escherichia coli, UniProt P0A6Y8+P63284); assay: Aggregate reactivation assay with KJE + ClpB; type: biochemical
T1 construct: full-length E. coli DnaK (residues 1–638); made in house; host or cells: E. coli BL21(DE3) for DnaK
Description: G6PDH was chemically denatured by mixing 5 μl of the G6PDH stock solution (441 μM) with 5 μl of buffer A (10 M urea, 16% glycerol, 40-mM DTT) preheated at 47 °C. The samples of G6PDH in buffer A were incubated for 5 min at 47 °C. Subsequently, 5 μl of denatured G6PDH was mixed with 95 μl of buffer B (50-mM Tris-HCl, pH 7.4, 20-mM Mg(OAc)2, 30-mM KCl, 1-mM EDTA, 1-mM β-mercaptoethanol) preheated at 47 °C to initiate protein refolding, which, under these conditions, is inefficient and leads to misfolding and aggregation of G6PDH ([69]). G6PDH aggregate production was arrested after 1 min (for refolding by KJE) or 15 min (for refolding by KJE with ClpB) by transferring into ice for 2 min. To observe the aggregate reactivation, aggregated G6PDH was diluted 10-fold in buffer C (50-mM Tris-HCl, pH 7.4, 20-mM MgCl2, 1-mM EDTA, 0.5-mM TCEP) containing the chaperones KJE (5.5-μM DnaK, 1.1-μM DnaJ, 1.1-μM GrpE) or KJE-ClpB (5.5-μM DnaK, 1.1-μM DnaJ, 1.1-μM GrpE, 1.65-μM ClpB (hexamer)). G6PDH in buffer C without chaperones was used as a control for a spontaneous aggregate reactivation. The chaperone-G6PDH samples (18 μl) were supplemented with 1 μl of DBeQ in DMSO or pure DMSO as a control. The samples were incubated for 2 min at 30 °C. The aggregate reactivation was initiated by adding 1 μl of 100-mM ATP, followed by incubation for 60 min at 30 °C. […] The plate was inserted into Synergy H1 plate reader (BioTek, Winooski, VT) with the chamber temperature at 30 °C, and the sample absorbance at 340 nm was measured after 10 min. The amount of NADPH produced was calculated based on the NADPH molar extinction coefficient, Ɛ340 = 6220 [M^−1 ⋅ cm^−1].
Firefly luciferase (220 μM) was diluted 300-fold in PBS buffer with 1 mg/ml bovine serum albumin and then incubated for 12 min at 45 °C. […] Luminescence was measured using Synergy H1 plate reader (BioTek, Winooski, VT).

ClpB hexamers = target: T2, ClpB hexamers (Escherichia coli, UniProt P63284); assay: Sedimentation velocity analytical ultracentrifugation of ClpB; details: 50 µM DBeQ, 1 mM ATPγS, 1 mg/ml ClpB
T2 construct: made in house
Description: Protein samples (0.5 ml) of wt ClpB and its variants W462F and W543F were dialyzed against 3 changes of 1 l of buffer AUC (50-mM Tris-HCl, pH 7.4, 200-mM KCl, 20-mM MgCl2, 1-mM EDTA, 0.5-mM TCEP). After dialysis, the samples were centrifuged (15 min, 13,000 RPM, 4 °C). The supernatants were collected, and the protein concentration was determined with the Bradford assay. Sedimentation velocity experiments were performed in Beckman Optima XL-I analytical ultracentrifuge equipped with a 4-cell rotor and 2-sector cells. The ClpB samples were diluted to 1 mg/ml in the AUC buffer supplemented with DMSO (5% (v/v) final concentration) with 1-mM ATPɤS, with or without 50-μM DBeQ. Centrifugation was performed at 48,000 RPM at 20 °C. The sedimentation profiles were collected using the interference detection system and analyzed with the Origin software supplied by the instrument manufacturer using the time-derivative method of Stafford ([71]). Observed sedimentation coefficients were corrected to values corresponding to the density and viscosity of water (s20,w) using Sednterp software (www.jphilo.mailway.com) with additional corrections for the presence of 5% DMSO ([72]).

E. coli dnaK103 = assay: Bacterial viability, dnaK103; type: cell-based, Escherichia coli; details: 45 °C
Description: E. coli MC4100, MC4100ΔclpB, dnaK103, and dnaK756 strains were used to determine an influence of DBeQ on bacterial growth and viability. Bacteria were maintained in the LB media, and in the case of the MC4100ΔclpB strain, LB was supplemented with 30 μg/ml kanamycin. All experiments were initiated by preparing overnight cultures inoculated from single colonies and grown at 37 °C. The dnaK103 and dnaK756 overnight cultures were grown at 30 °C. On the following day, the cultures were diluted 100-fold in 10 ml of LB without antibiotics and incubated at 37 °C. The culture optical density was monitored at 600 nm. When absorbance at 600 nm reached 0.4, the culture was divided into 1-ml aliquots and supplemented with 10 μl of DMSO or different concentrations of DBeQ in DMSO. The samples were immediately transferred into an incubator/shaker at temperature 37, 45, or 50 °C. Bacteria were cultured for up to 4 h with shaking (200 RPM). At specific time points, 100 μl of each culture was withdrawn and serially diluted in sterile 0.9% NaCl up to 10^6-fold dilution. To estimate the number of viable cells, 5 μl or 10 μl of the diluted cultures was spread on the LB-agar plate without an antibiotic. […] On the following day, the bacterial colonies were counted and the colony-forming units/ml were calculated.

T1 sequence (P63284 whole entry, the tested form may be a part): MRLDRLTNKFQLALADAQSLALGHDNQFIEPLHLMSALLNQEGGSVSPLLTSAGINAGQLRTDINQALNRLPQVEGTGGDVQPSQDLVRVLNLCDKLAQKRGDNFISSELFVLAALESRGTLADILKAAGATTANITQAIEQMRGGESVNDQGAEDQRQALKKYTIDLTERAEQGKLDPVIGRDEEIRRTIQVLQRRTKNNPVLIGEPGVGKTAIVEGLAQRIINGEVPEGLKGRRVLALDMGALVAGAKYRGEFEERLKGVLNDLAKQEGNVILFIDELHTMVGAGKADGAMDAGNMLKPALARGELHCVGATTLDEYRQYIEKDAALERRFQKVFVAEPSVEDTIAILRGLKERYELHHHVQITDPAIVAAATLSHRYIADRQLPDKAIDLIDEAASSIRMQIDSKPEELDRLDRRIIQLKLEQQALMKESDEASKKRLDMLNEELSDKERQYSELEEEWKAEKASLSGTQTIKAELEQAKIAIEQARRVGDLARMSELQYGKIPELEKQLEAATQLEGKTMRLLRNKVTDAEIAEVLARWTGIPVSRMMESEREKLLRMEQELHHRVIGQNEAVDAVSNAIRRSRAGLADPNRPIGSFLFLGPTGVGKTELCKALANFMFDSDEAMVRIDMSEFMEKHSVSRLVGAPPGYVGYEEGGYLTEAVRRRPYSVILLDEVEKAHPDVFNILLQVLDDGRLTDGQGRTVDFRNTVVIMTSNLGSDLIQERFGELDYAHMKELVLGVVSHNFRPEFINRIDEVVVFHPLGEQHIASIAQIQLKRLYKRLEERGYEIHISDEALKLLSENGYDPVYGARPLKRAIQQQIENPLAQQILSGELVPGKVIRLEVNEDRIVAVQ
T1 sequence (P0A6Y8 whole entry, the tested form may be a part): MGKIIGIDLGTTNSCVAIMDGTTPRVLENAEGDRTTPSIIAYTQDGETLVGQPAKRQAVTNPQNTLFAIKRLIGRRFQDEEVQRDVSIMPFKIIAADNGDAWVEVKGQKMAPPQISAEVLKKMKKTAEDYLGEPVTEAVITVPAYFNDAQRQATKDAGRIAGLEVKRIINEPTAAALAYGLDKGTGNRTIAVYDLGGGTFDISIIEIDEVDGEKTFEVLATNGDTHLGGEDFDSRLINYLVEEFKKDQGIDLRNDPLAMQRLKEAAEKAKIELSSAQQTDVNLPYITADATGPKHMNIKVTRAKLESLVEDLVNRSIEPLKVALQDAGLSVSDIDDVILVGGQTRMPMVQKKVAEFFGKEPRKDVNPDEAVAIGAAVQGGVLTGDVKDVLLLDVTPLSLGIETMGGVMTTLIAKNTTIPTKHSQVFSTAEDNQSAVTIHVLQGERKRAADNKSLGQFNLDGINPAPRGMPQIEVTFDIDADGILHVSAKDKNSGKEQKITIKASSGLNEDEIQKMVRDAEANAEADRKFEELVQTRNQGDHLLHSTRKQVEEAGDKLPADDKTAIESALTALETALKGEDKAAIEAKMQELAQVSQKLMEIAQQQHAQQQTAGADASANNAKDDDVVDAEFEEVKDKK
T2 sequence (P63284 whole entry): as the sequence (P63284 whole entry, the tested form may be a part) above

Compound: c1ccc(CNc2nc(NCc3ccccc3)c3ccccc3n2)cc1 [DBeQ, N^2,N^4-dibenzylquinazoline-2,4-diamine]
- IC50 [1]: ~5 µM
- inhibition of ClpB-dependent reactivation of aggregated luciferase ([1]; KJE + ClpB, 20 min, 25 °C): inhibited
- inhibition of ClpB-dependent reactivation of aggregated G6PDH ([1]; KJE + ClpB, 60 min, 30 °C, compared with KJE alone): inhibited by DBeQ with a several-fold lower IC50 than ClpB-independent reactivation by KJE alone
- dissociation of ClpB hexamers (ClpB hexamers): does not induce dissociation
- effect on viability of dnaK103 (E. coli dnaK103): suppressed viability
